Results taken from patent US20130145496A1, “FLAVIN ENZYME HAVING FLAVONOL 8-HYDROXYLASE ACTIVITY AND USE THEREOF” (SUNTORY HOLDINGS LIMITED, priority 2010, published 2013).

Assays:
[1] = tested on: flavonol 8-hydroxylase (MFB088 crude enzyme); test: Hydroxylase activity of MFB088 crude enzyme on flavonoid substrates (UPLC-TOF MS, ion trap MS/MS); format: biochemical, Lotus japonicus; conditions: 0.048 nmol substrate, FAD, NADPH, pH 7.0, 30° C., 15 minutes; product detected by UPLC-TOF MS / ion trap MS/MS; not detected in negative control
Procedure: The yeast cells were centrifuged and recovered, and then lysed using glass beads. The lysate was centrifuged at 8000×g for 10 minutes. The supernatant was recovered and further centrifuged at 15000×g for 10 minutes to give the crude enzyme fraction of the protein encoded by MFB088 (hereinafter referred to as the MFB088 crude enzyme).
MFB088 crude enzyme solution, 2 μl (containing 2.5 μg of proteins); 0.1 M KH2PO4/K2HPO4 solution (containing 0.4% ascorbic acid: pH 7.0), 88 μl; 0.048 nmol eriodictyol/5 […] of H2O; 0.001 nmol FAD and 0.48 nmol NADPH/5 μl of H2O.
NADPH was added to start the reaction. After the reaction proceeded at 30° C. for 15 minutes, 10 μl of glacial acetic acid was added to stop the reaction. An […] was further added to extract the phenol compound twice (the added […]: 70 μl and 50 μl). The organic layer was recovered and used as a sample (hereinafter referred to as “MFB088 crude enzyme reaction product”). The components were analyzed by UPLC-TOF MS and ion trap MS/MS.
For analysis of the MFB088 crude enzyme reaction product, Waters Acquity UPLC™ system (Waters Corporation) equipped with time-of-flight mass spectrometer LCT Premier (Waters Corporation, Massachusetts, USA) was used. The analysis was performed using an ACQUITY UPLC™ BEH C18 column (particle diameter of 1.7 μm, column size of 2.1 mm I.D.×100 mm, Waters Corporation) under the conditions of flow rate of 0.3 ml/min and column temperature at 40° C. Using solvent A (0.1% formic acid-acetonitrile) and solvent B (0.1% formic acid aqueous solution), the reaction product was eluted by linear gradient from 70% B in 0 minute to 70% A in 20 minutes. The reaction product was detected by the time-of-flight mass spectrometer in the cation detection mode set forth below: capillary voltage of 2500 V, sample cone of 100 V, desolvation temperature at 250° C., source temperature at 120° C., and nitrogen gas flow of 6001/hour.
The components of the MFB088 crude enzyme reaction product was analyzed by ion trap MS/MS. High performance liquid chromatography (HPLC) system Agilent 1200 series (Agilent Technologies, California, USA) equipped with ion trap mass spectrometer LTQ XL (Thermo Fisher Scientific, Massachusetts, USA) was used for the MS/MS analysis. HPLC was performed using a TSKgel ODS-80™ column (particle diameter of 5 μm, column size of 4.6 mm I.D.×150 mm, TOSOH, Japan) under the conditions of flow rate of 0.5 ml/min and column temperature at 40° C. Using solvent A (0.1% formic acid-acetonitrile) and solvent B (0.1% formic acid aqueous solution), the reaction product was eluted by linear gradient from 70% B in 0 minute to 85% A in 30 minutes. The reaction product was ionized by electrospray ionization method and cations were detected under the following conditions: spray voltage of 4.0 kV, capillary temperature at 300° C., nitrogen sheath of 40 units, and auxiliary gas of 15 units. In the MS/MS analysis of the reaction product [M+H]+, collision-induced dissociation (CID) was performed under the conditions below to detect the fragment peak: normalized collision energy of 35, activation Q of 0.25 and activation time for 30 ms.
MFB088 crude enzyme solution, 2 μl (containing 2.5 μg of proteins); 0.1 M KH2PO4/K2HPO4 solution (containing 0.4% ascorbic acid: pH 7.0), 88 μl; 0.048 nmoleriodictyol/5 μl of H2O; 0.001 nmol FAD and 0.48 nmol NADPH/5 μl of H2O.
MFB088 crude enzyme solution, 2 μl (containing 2.5 μg of protein); 0.1 M KH2PO4/K2HPO4 solution (containing 0.4% ascorbic acid: pH 7.0), 88 μl; 0.048 nmol luteolin/5 μl of H2O; 0.001 nmol FAD and 0.48 nmol NADPH/5 μl of H2O.
The reactivity requiring kaempferol and apigenin as substrates was analyzed. The reaction product was recovered in a manner similar to EXAMPLES described above and the components were analyzed by UPLC-TOF MS.

[2] = tested on: nuclear factor-κB (NF-κB); conditions: leading to cell apoptosis potentiation; cited from earlier work
[3] = tested on: low density lipoprotein receptor (LDLR); conditions: through activation of extracellular signal-regulated kinase (ERK); cited from earlier work

## O=c1cc(-c2ccc(O)cc2)oc2cc(O)cc(O)c12 [apigenin]
[1]
  hydroxylation of substrate by the MFB088 crude enzyme: hydroxyl group is attached to apigenin

## O=C1c2c(O)cc(O)cc2O[C@H](c2ccc(O)c(O)c2)[C@H]1O [dihydroquercetin]
[1]
  hydroxylation of substrate by the MFB088 crude enzyme: two hydroxyl groups were attached

## O=C1C[C@@H](c2ccc(O)c(O)c2)Oc2cc(O)cc(O)c21 [eriodictyol]
[1]
  hydroxylation of substrate by the MFB088 crude enzyme: hydroxyl-substituted

## O=c1c(O)c(-c2ccc(O)c(O)c2)oc2c(O[C@@H]3O[C@H](CO)[C@@H](O)[C@H](O)[C@H]3O)c(O)cc(O)c12 [gossypin, gossypetin-8-glucoside]
[2]
  effect on activation of NF-κB: inhibits the activation of nuclear factor-κB (NF-κB)
[3]
  effect on LDLR: upregulates low density lipoprotein receptor (LDLR)

## O=c1c(O)c(-c2ccc(O)cc2)oc2cc(O)cc(O)c12 [kaempferol]
[1]
  hydroxylation of substrate by the MFB088 crude enzyme: hydroxyl group is attached to kaempferol at position 8

## O=c1cc(-c2ccc(O)c(O)c2)oc2cc(O)cc(O)c12 [luteolin]
[1]
  hydroxylation of substrate by the MFB088 crude enzyme: hydroxyl group is attached to luteolin

## O=C1C[C@@H](c2ccc(O)cc2)Oc2cc(O)cc(O)c21 [naringenin]
[1]
  hydroxylation of substrate by the MFB088 crude enzyme: two hydroxyl groups were attached

## O=c1c(O)c(-c2ccc(O)c(O)c2)oc2cc(O)cc(O)c12 [quercetin]
[1]
  hydroxylation of substrate by the MFB088 crude enzyme: substituted with hydroxyl group at position 8 and converted into gossypetin
